Each structure is given as a SMILES string. Where “and” joins values, the source holds several entries; their conditions need not be identical. Identical values can stand only once. Where only a bound is given, the exact number is not on record here.

One data set relates to MRP2 transporter. More on the design: method as in PMID 27676153. As to conditions: 0.3–300 µM, increased efflux of LTC4, MRP2 transfected membrane vesicles; cited from earlier work.
Data set [1] has as its target NTCP. As to conditions: cited from earlier work.
Data set [2] relates to OATP1B1. As to conditions: cited from earlier work.
Data set [3] deals with BSEP. The settings on record: read-out: IC50 for BSEP; cited from earlier work.
Data set [4] deals with BSEP. More on the design: method as in PMID 28011201. The settings on record: in vitro; cited from earlier work.
Data set [5] is described as follows: Dynamic PET/CT imaging of hepatic uptake and biliary excretion of [18F]LCATD in rats. The format is in vivo, rat. As to conditions: for CLuptake,in vivo (in vivo hepatic uptake clearance): Patlak integration plot 0–3 min; for CLuptake,in vivo (in vivo hepatic uptake clearance) / t max (time to maximum peak concentration in liver) / AUCbile 0–10 min (radioactivity in the gastrointestinal tract) / AUCliver 0–5 min / AUCliver 0–30 min / CLint,bile (intrinsic biliary clearance of the radiotracer) / Kp liver 0−5 min (apparent liver-to-blood AUC0–5 min ratio) / Cmax,liver (maximum measured activity in the liver): n=3. As for the experimental part: PET scans were performed with a preclinical PET/CT SEDECAL ARGUS scanner (SEDECAL, Spain) housed in a temperature-controlled suite. The scanner has two 11.8 cm diameter rings of photoswitch detectors coupled to position-sensitive photomultiplier tubes, giving a 4.8 cm axial and 7.5 cm transaxial field of view (FOV). All animals were cannulated (Venisystem Butterfly, Abbott Ireland) in the tail vein for tracer injection under general anaesthesia with isoflurane (IsoFlo 100% w/w, Abbott Laboratories Ltd) 2.5% (2 L·min^−1 oxygen flow). Animals were divided into three groups: control group (administered with [ ^18 F]LCATD only, 3 animals), rifamycin SV-treated group (3 animals) and fusidate-treated group (3 animals). All the animals were scanned in supine position. At the start of the scan, [ ^18 F]LCATD (5–15 MBq per body) was injected as a single bolus into the tail vein. Administered radioactivity was measured as the net counts in the syringe before and after the injection with an ionization chamber (Capintec CRC-15PET; Ramsey, New Jersey). The mass amount of [ ^18 F]LCATD administered per animal was estimated to be between 0.2 and 1 nmol. For inhibition experiments, rifamycin SV was administrated 45 minutes before the start of the scan at a dose of 50mg·Kg^−1 (intraperitoneally) and at the time of the tracer injection at a dose of 12.5 mg·Kg^−1 (intravenously). For the in vivo assessment of the inhibitory effect of sodium fusidate on the hepatobiliary transport of the tracer, the drug was administrated at a dose of 20 mg·Kg^−1 (intraperitoneally) 30 minutes before the scan and at a dose of 10 mg·Kg^−1 (intravenously) after 15 minutes from the tracer injection. Emission scans in 3D list-mode were acquired for 30 minutes (with a FOV encompassing part of the thorax and the intestine) followed by a 5 minutes CT scan. PET acquisitions were obtained with an energy window set to 250–700 keV and corrections for dead-time, activity decay, attenuation, random, and scatter counts were applied (using the manufacturer' software). The dynamic images were obtained by sorting the list mode data into the following time frames: 6 × 10 s, 8 × 30 s, 10 × 60 s, and 3 × 300 s, and images were reconstructed with a FORE/2D-OSEM reconstruction algorithm (provided by the manufacturer). Sampling at shorter intervals during early time-points enabled us to detect rapid increments of tracer uptake in the liver and intestine. […] A 5-minute PET scan of the injection site at the end of the CT was obtained to ensure successful intravenous injection. Cross calibration between the ionization chamber and the PET scanner was carried out by using a cylindrical phantom made of Perspex with internal diameter of 43 mm and length of 37 mm. 10 to 20 minute PET scans of the phantom filled with an average of about 4.20 MBq of [ ^18 F]LCATD in 60 g of water were acquired (average dead-time value 4%).
The registered PET and CT images were transferred from the scanner to a processing workstation, and subsequent analysis was carried out using Pmod (Pmod Technologies, CH) version 3.2. Regions of interest (ROIs) corresponding to abdominal aorta, liver, and gastrointestinal tract were defined via a combination of manual and threshold methods (Supplementary Figure 1 and movie) using PMOD software (PMOD Technologies). The stomach was included in the gastrointestinal ROI to include the amount of bile that might have refluxed from the duodenum into the stomach.
Uptake hepatic clearance CLuptake,in vivo was calculated by integration plots obtained applying the Patlak method in Pmod (Pmod Technologies, CH) version 3.2, limiting the linear fit to the uptake phase (0–3 min).
Intrinsic biliary clearance of the radiotracer CLint,bile was determined as proposed by Takashima et al. by quantification of the radiotracer in the liver and the intestine (as amount of radiotracer excreted into the bile).

Details of data set [6]: method as in PMID 28011201. As to conditions: in vitro; cited from earlier work.
The next data set has as its system OATP1B3. More on the design: method as in PMID 28011201. As to conditions: in vitro; cited from earlier work.
Data set [7] is described as follows: Postmortem biodistribution of the tracer (gamma counting, 50 min postinjection). The format is in vivo, rat. The settings on record: for activity in the terminal blood sample versus control: p < 0.05. Here is the method: Samples of the liver, heart, and kidney were collected at the end of the PET-CT scan (after euthanasia) and homogenised with methanol (80% in water, 5 mL per gram of biological sample) by means of a homogenizer. Samples were stored in preweighed plastic vials. Terminal blood was collected by cardiac puncture just before euthanasia. The activity of the homogenates and blood samples was measured by means of a precalibrated gamma counter as soon as possible after the PET experiment.

In data set [8] the test system is OATP1B1. More on the design: method as in PMID 28011201. The settings on record: in vitro; cited from earlier work.
Data set [9] can be described thus: Postmortem metabolites analysis by radio-HPLC. The format is in vivo, rat. As to conditions: 50 min postinjection. As for the experimental part: Analysis of metabolites in the blood, liver, and bile (extracted from the intestine) was performed via radio-HPLC. Blood samples, collected by cardiac puncture at the end of the PET-CT scan, were treated with an equal volume of acetonitrile, centrifuged for 1 minute at 1000 rpm and the supernatant was injected in radio-HPLC (Shimadzu Prominence HPLC system equipped with a PDA UV detector and HERM LB500 activity detector and Phenomenex Luna C18 column, 5 μm, 100 Å, 250 × 4.6 mm, injection volume 20 µL, PBS/CH3CN 60 : 40, isocratic elution, flow: 1 mL·min^−1). Samples of the liver and duodenum were collected at the end of the PET-CT scan (after euthanasia) homogenated with methanol (80% in water, 5 mL per gram of biological sample) by means of a homogenizer and centrifuged for 1 minute at 1000 rpm and the supernatant was injected in radio-HPLC.

Data set [10] has as its system NTCP. On the set-up: method as in PMID 28011201. The settings on record: in vitro; cited from earlier work.
Where [11] appears, read: rifamycin SV-treated rats (total dose 62.5 mg·Kg^−1).

As to `CC(=O)O[C@H]1C[C@@]2(C)[C@@H](C[C@@H](O)[C@H]3[C@@]4(C)CC[C@@H](O)[C@@H](C)[C@@H]4CC[C@@]32C)/C1=C(\CCC=C(C)C)C(=O)O` [fusidic acid], in the data set with MRP2 transporter, the “effect on MRP2 transporter (canalicular efflux) in vitro” value was “stimulate”.
With `CO[C@H]1/C=C/O[C@@]2(C)Oc3c(C)c(O)c4c(O)c(cc(O)c4c3C2=O)NC(=O)/C(C)=C\C=C\[C@H](C)[C@H](O)[C@@H](C)[C@@H](O)[C@@H](C)[C@H](OC(C)=O)[C@@H]1C` [rifamycin SV], the Ki at NTCP [1] (read-out: K i for NTCP) is over 63 µM. Also, the values for the IC50 in the data set on OATP1B1 [2] and in the data set with BSEP [3] were 0.2 to 0.4 µM and 6.3 µM, respectively.
In the case of `C[C@H](CCC(=O)NC(Cc1cn(CCCC[18F])nn1)C(=O)O)[C@H]1CC[C@H]2[C@@H]3CC[C@@H]4C[C@H](O)CC[C@]4(C)[C@H]3CC[C@]12C` (some centres unmarked) [[ ^18 F]LCATD, LithoCholic Acid Triazole Derivative], the “transport by efflux transporter BSEP” value in the data set on BSEP [4] is “excreted into the bile via the efflux transporter BSEP”. In data set [5] (control rats), the “activity in the liver 2 minutes after tracer injection” value (from here on “activity in the liver 2 minutes”) was 14.2 ± 0.8%, the “maximum activity recorded in the liver” value was 14.2 ± 0.8 % of the injected dose, the “residual activity in the liver after 30 minutes” value is recorded as 1.04 ± 0.17 % of the injected dose and the “AUCbile 0–10 min (radioactivity in the gastrointestinal tract)” value (shortened to “AUCbile 0–10 min”) is recorded as 89 ± 1 % ID·min·mL^−1. In addition, in [5] (control rats), the “AUCliver 0–5 min” value was 58 ± 1 % ID·min·mL^−1, the “AUCliver 0–30 min” value is recorded as 110 ± 15 % ID·min·mL^−1, the “CLint,bile (intrinsic biliary clearance of the radiotracer)” value (from here on “CLint,bile”) was 0.17 ± 0.03 mL/min/g and the “Kp liver 0−5 min (apparent liver-to-blood AUC0–5 min ratio)” value amounted to 3.64 ± 0.09. In [5] (control rats, image-derived blood input), the “CLuptake,in vivo (in vivo hepatic uptake clearance)” value (from here on “CLuptake,in vivo”) turned out to be 2.09 ± 0.27 mL/min/g. Besides, the “t max (time to maximum peak concentration in liver)” value in data set [5] (control rats, [18F]LCATD only, iv bolus) was 2.25 min. Moreover, in [5] (fusidate-treated rats), the “activity in the liver after 30 minutes” value is given as 1.02 ± 0.02 % of the injected dose, the “CLuptake,in vivo” value was 1.40 ± 0.13^∗ mL·min^−1·g^−1, the “AUCbile 0–10 min” value turned out to be 93 ± 19 % ID·min·mL^−1 and the “AUCliver 0–5 min” value is listed as 48 ± 0.3^∗ % ID·min·mL^−1. For the same compound, in data set [5] (fusidate-treated rats), the “AUCliver 0–30 min” value is reported as 89 ± 11 % ID·min·mL^−1, the “CLint,bile” value is recorded as 0.36 ± 0.03^∗ mL·min^−1·g^−1, the “Cmax,liver (maximum measured activity in the liver)” value is 11.5 ± 0.3^∗ % ID·mL^−1 and the “Kp liver 0−5 min (apparent liver-to-blood AUC0–5 min ratio)” value was 2.451 ± 0.016. Moreover, the “t max (time to maximum peak concentration in liver)” value in [5] (fusidate-treated rats (20 mg·Kg^−1 ip 30 min before scan + 10 mg·Kg^−1 iv 15 min after tracer injection)) is 2.25 min. Moreover, the “maximum activity recorded in the liver” value in [5] (fusidate-treated rats (30 mg·Kg^−1)) was 11.5 ± 0.3 % of the injected dose. Further, in data set [5] (rifamycin SV-treated rats), the “activity in the liver 2 minutes” value was 8.0 ± 0.6%, the “activity in the liver after 30 minutes” value is recorded as 1.87 ± 0.13 % of the injected dose, the “CLuptake,in vivo” value is given as 0.71 ± 0.05^∗ mL·min^−1·g^−1 and the “AUCbile 0–10 min” value was 53 ± 3^∗ % ID·min·mL^−1. Also, in data set [5] (rifamycin SV-treated rats), the “AUCliver 0–5 min” value is listed as 44 ± 4^∗ % ID·min·mL^−1, the “AUCliver 0–30 min” value is given as 139 ± 9 % ID·min·mL^−1, the “CLint,bile” value amounted to 0.12 ± 0.03 mL/min/g and the “Cmax,liver (maximum measured activity in the liver)” value is 10.2 ± 0.9^∗ % ID·mL^−1. Moreover, the “Kp liver 0−5 min (apparent liver-to-blood AUC0–5 min ratio)” value in data set [5] (rifamycin SV-treated rats) stood at 2.07 ± 0.17. Moreover, the “t max (time to maximum peak concentration in liver)” value in [5] (rifamycin SV-treated rats (50 mg·Kg^−1 ip 45 min before scan + 12.5 mg·Kg^−1 iv at tracer injection)) came to 3.75 min. For the same compound, in data set [5] (setting [11]), the “delay of t max relative to control rats” value is 1.5 min; the “maximum activity recorded in the liver” value is 10.2 ± 0.9 % of the injected dose and 10.2 ± 1.0 % of the injected dose. In addition, in [5] (sodium fusidate-treated rats), the “activity in the liver 2 minutes” value amounted to 11.4 ± 0.4%. In addition, the passive permeability entry in data set [6] is on record as “low”. Besides, the “transport by OATP1B3” value in the data set on OATP1B3 was “low affinity substrate”. Moreover, the “activity in the terminal blood sample versus control” value in data set [7] (fusidate-treated rats) is “significantly increased”. Also, the “activity in the kidneys” value in [7] (postmortem) is < 0.1 % of the injected dose. Further, the “activity in the terminal blood sample versus control” value in data set [7] (rifamycin SV-treated rats) is listed as “significantly increased”. For the same compound, the “transport by uptake transporter OATP1B1” value in the data set on OATP1B1 [8] was “substrate”. For the same compound, the “metabolic stability of the tracer” value in [9] (in vivo, rat) was “at least 90%”. Moreover, the “share of activity in intestine extracts as twin peak matching [18F]LCATD” value in data set [9] (radio-HPLC, intestine extracts of two control animals) was “over 90%”. Moreover, in the data set on NTCP [10], the “transport by uptake transporter NTCP” value is “substrate”.
Turning to `CC(=O)O[C@H]1C[C@@]2(C)[C@@H](C[C@@H](O)[C@H]3[C@@]4(C)CC[C@@H](O)[C@@H](C)[C@@H]4CC[C@@]32C)/C1=C(\CCC=C(C)C)C(=O)O` [sodium fusidate], the IC50 – broadly, the concentration that gives 50% inhibition – is 44 µM with NTCP [1], 1.6 to 35 µM in the data set with OATP1B1 [2] and 3.8 to 11.5 µM in the data set with BSEP [3].

These data come from article PMC6091370, “Preclinical Evaluation of [^18F]LCATD as a PET Tracer to Study Drug-Drug Interactions Caused by Inhibition of Hepatic Transporters” (Contrast Media & Molecular Imaging, 2018).
